The target in test [1] is T1, c-Met (cytoplasmic domain) (Homo sapiens, UniProt P08581).
T1 construct: 10 ng/mL c-Met (cytoplasmic domain, Invitrogen Corporation #PV3143); purchased Invitrogen Corporation PV3143
Nature of the test: c-Met Kinase Assay (same methods as for ALK, with modifications). Format: biochemical. As to conditions: c-Met kinase inhibition, 1 μM ATP; read-out: cMet Activity. The gist of the method:
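Europium-labeled PT66 antibody (Eu-N1) detects substrate phosphorylation on wells coated with phospholipase C-γ at 10 μg/mL. The kinase, the cytoplasmic domain of c-Met at 10 ng/mL, starts the reaction, which proceeds 15 minutes at 37° C.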

Test [2] concerns the target T2, baculovirus-expressed ALK (Homo sapiens, UniProt Q9UM73).
T2 construct: host or cells: baculovirus expression system
Nature of the test: ALK Kinase Assay (ELISA-type, time-resolved fluorescence). The class given is biochemical. As to conditions: ALK kinase inhibition, 1 μM ATP; read-out: ALK Activity. The gist of the method:
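Plates coated with phospholipase C-γ substrate (10 μg/mL in TBS); reaction started with 30 ng/ml ALK and run 15 min at 37° C. Phosphorylated substrate detected with Eu-N1-labeled PT66 antibody. IC50 from sigmoidal variable-slope fit of percent inhibition vs log concentration.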

T1 sequence (P08581 956-1390 limits assumed): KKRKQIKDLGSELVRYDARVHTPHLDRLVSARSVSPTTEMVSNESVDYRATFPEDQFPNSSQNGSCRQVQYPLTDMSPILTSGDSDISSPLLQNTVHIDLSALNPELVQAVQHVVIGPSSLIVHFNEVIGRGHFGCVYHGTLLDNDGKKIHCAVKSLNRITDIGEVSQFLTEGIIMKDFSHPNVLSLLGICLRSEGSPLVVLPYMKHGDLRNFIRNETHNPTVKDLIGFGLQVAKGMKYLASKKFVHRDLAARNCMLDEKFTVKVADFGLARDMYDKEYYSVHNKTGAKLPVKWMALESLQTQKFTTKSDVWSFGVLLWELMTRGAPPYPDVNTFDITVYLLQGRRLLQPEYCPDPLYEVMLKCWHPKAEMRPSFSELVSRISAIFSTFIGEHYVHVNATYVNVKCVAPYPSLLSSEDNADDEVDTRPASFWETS
T2 sequence (Q9UM73 19-1620): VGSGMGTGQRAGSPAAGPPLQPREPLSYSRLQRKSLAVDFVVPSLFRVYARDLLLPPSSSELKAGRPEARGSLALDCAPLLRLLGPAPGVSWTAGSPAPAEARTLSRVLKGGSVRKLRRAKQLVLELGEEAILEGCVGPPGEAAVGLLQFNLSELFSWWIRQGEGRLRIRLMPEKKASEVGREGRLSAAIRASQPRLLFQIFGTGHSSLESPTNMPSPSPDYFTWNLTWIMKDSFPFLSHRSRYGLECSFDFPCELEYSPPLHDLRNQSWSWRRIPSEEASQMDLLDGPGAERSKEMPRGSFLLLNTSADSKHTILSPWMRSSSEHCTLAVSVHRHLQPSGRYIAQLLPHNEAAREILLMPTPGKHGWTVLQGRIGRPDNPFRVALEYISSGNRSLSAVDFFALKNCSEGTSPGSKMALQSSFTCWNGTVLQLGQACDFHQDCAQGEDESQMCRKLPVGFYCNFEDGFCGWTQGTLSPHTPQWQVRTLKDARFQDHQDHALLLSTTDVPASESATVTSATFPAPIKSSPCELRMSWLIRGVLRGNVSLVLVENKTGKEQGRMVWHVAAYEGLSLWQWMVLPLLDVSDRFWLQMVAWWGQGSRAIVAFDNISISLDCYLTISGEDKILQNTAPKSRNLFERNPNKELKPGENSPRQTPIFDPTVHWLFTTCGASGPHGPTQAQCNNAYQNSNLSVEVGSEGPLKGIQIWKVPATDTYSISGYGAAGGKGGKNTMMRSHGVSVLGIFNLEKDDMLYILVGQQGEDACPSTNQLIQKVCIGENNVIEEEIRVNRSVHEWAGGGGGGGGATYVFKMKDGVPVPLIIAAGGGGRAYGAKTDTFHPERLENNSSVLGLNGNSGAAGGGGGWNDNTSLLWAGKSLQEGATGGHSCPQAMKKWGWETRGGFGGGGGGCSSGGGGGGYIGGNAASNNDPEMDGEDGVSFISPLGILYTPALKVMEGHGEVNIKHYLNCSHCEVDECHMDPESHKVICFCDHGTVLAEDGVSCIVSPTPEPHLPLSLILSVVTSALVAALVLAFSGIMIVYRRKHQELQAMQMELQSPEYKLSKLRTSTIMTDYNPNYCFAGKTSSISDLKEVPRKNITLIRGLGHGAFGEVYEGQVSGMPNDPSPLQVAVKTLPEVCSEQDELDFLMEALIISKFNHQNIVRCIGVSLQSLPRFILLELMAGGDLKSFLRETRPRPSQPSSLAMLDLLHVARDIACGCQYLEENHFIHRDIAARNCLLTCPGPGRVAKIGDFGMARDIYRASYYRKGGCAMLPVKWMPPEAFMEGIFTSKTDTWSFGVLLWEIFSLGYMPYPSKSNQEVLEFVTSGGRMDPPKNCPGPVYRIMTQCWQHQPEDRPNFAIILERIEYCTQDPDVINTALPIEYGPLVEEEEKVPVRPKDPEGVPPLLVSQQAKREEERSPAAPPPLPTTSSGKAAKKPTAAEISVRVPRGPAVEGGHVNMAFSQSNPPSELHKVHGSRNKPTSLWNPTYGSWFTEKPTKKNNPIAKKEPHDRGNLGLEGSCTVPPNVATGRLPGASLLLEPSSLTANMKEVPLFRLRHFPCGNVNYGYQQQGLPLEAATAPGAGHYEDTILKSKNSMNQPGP

With `C#CCNC(=O)c1cccc(F)c1Nc1nc(Nc2ccc3c(c2)N(C(C)C)CCCO3)ncc1Cl` [Example 1733, 2-[5-Chloro-2-(9-isopropyl-6,7,8,9-tetrahydro-5-oxa-9-aza-benzocyclohepten-2-ylamino)-pyrimidin-4-ylamino]-3-fluoro-N-prop-2-ynyl-benzamide], the IC50 was 100 to 1000 nM in test [1] and less than 100 nM in test [2].

On to `CNC(=O)c1cccc(F)c1Nc1nc(Nc2ccc3c(c2)N(C(C)C)CCCO3)ncc1Cl` [Example 1734, 2-[5-Chloro-2-(9-isopropyl-6,7,8,9-tetrahydro-5-oxa-9-aza-benzocyclohepten-2-ylamino)-pyrimidin-4-ylamino]-3-fluoro-N-methyl-benzamide], for which the IC50 in test [1] and in test [2] was less than 100 nM in each case.

Take `C#CCNC(=O)c1cccc(F)c1Nc1nc(Nc2ccc3c(c2)OCC(O)(CO)CN3CC)ncc1Cl` (stereo not drawn) [Example 1735, 2-[5-Chloro-2-(9-ethyl-7-hydroxy-7-hydroxymethyl-6,7,8,9-tetrahydro-5-oxa-9-aza-benzocyclohepten-3-ylamino)-pyrimidin-4-ylamino]-3-fluoro-N-prop-2-ynyl-benzamide]: the IC50 in test [1] and in test [2] was 100 to 1000 nM each time.

For the molecule `CCN1CC(O)(CO)COc2cc(Nc3ncc(Cl)c(Nc4c(F)cccc4C(=O)NC)n3)ccc21` (stereo not drawn) [Example 1736, 2-[5-Chloro-2-(9-ethyl-7-hydroxy-7-hydroxymethyl-6,7,8,9-tetrahydro-5-oxa-9-aza-benzocyclohepten-3-ylamino)-pyrimidin-4-ylamino]-3-fluoro-N-methyl-benzamide], the results for the IC50 in test [1] and in test [2] were less than 100 nM and 100 to 1000 nM, respectively.

On to `CNC(=O)c1ccccc1Nc1nc(Nc2ccc3c(c2)CCOC(=O)N3C)ncc1Cl` [Example 1741, 2-[5-Chloro-2-(5-methyl-6-oxo-5,6,8,9-tetrahydro-7-oxa-5-aza-benzocyclohepten-2-ylamino)-pyrimidin-4-ylamino]-N-methylbenzamide], for which the IC50 in test [1] and in test [2] was less than 100 nM in each case.

Consider `CNC(=O)c1cccc(F)c1Nc1nc(Nc2ccc3c(c2)CCOC(=O)N3C)ncc1Cl` [Example 1742, 3-Fluoro-2-[5-chloro-2-(5-methyl-6-oxo-5,6,8,9-tetrahydro-7-oxa-5-aza-benzocyclohepten-2-ylamino)-pyrimidin-4-ylamino]-N-methyl-benzamide], for which the IC50 in test [1] and in test [2] was less than 100 nM throughout.

In the case of `CNC(=O)c1cccc(Cl)c1Nc1nc(Nc2ccc3c(c2)CCOC(=O)N3C)ncc1Cl` [Example 1743, 3-Chloro-2-[5-chloro-2-(5-methyl-6-oxo-5,6,8,9-tetrahydro-7-oxa-5-aza-benzocyclohepten-2-ylamino)-pyrimidin-4-ylamino]-N-methyl-benzamide], the figures for the IC50 in test [1] and in test [2] were less than 100 nM and 1000 to 10000 nM, respectively.

For the molecule `CNC(=O)c1cccc(C)c1Nc1nc(Nc2ccc3c(c2)CCOC(=O)N3C)ncc1Cl` [Example 1744, 2-[5-Chloro-2-(5-methyl-6-oxo-5,6,8,9-tetrahydro-7-oxa-5-aza-benzocyclohepten-2-ylamino)-pyrimidin-4-ylamino]-3,N-dimethyl-benzamide], the IC50 in test [1] is less than 100 nM; in test [2], 1000 to 10000 nM.

On to `CCN1C(=O)OCCc2cc(Nc3ncc(Cl)c(Nc4ccccc4C(=O)NC)n3)ccc21` [Example 1745, 2-[5-chloro-2-(5-ethyl-6-oxo-5,6,8,9-tetrahydro-7-oxa-5-aza-benzocyclohepten-2-ylamino)-pyrimidin-4-ylamino]-N-methyl-benzamide], for which the IC50 in test [1] and in test [2] was less than 100 nM in each case.

For `CCN1C(=O)OCCc2cc(Nc3ncc(Cl)c(Nc4c(F)cccc4C(=O)NC)n3)ccc21` [Example 1746, 2-[5-chloro-2-(5-ethyl-6-oxo-5,6,8,9-tetrahydro-7-oxa-5-aza-benzocyclohepten-2-ylamino)-pyrimidin-4-ylamino]-3-fluoro-N-methyl-benzamide], the IC50 in test [1] and in test [2] was less than 100 nM throughout.

Consider `CNC(=O)c1sccc1Nc1nc(Nc2ccc3c(c2)CCOC(=O)N3C)ncc1Cl` [Example 1747, 3-[5-Chloro-2-(5-methyl-6-oxo-5,6,8,9-tetrahydro-7-oxa-5-aza-benzocyclohepten-2-ylamino)-pyrimidin-4-ylamino]-thiophene-2-carboxylic acid methylamide], for which the IC50 in test [1] is less than 100 nM; in test [2], 100 to 1000 nM.

On to `CN1C(=O)OCCc2cc(Nc3ncc(Cl)c(Nc4ccccc4OCC#N)n3)ccc21` [Example 1748, {2-[5-chloro-2-(5-methyl-6-oxo-5,6,8,9-tetrahydro-7-oxa-5-aza-benzocyclohepten-2-ylamino)-pyrimidin-4-ylamino]-phenoxy}-acetonitrile], for which the IC50 in test [1] and in test [2] was less than 100 nM in each case.

On to `CN1C(=O)OCCc2cc(Nc3ncc(Cl)c(Nc4ccccc4-c4nccn4C)n3)ccc21` [Example 1749, 2-{5-chloro-4-[2-(1-methyl-1H-imidazol-2-yl)-phenylamino]-pyrimidin-2-ylamino}-5-methyl-8,9-dihydro-5H-7-oxa-5-aza-benzocyclohepten-6-one], for which the IC50 in test [1] was 100 to 1000 nM; in test [2], less than 100 nM.

For `CNC(=O)c1cc(C)cc(C)c1Nc1nc(Nc2ccc3c(c2)CCOC(=O)N3C)ncc1Cl` [Example 1750, 2-[5-Chloro-2-(5-methyl-6-oxo-5,6,8,9-tetrahydro-7-oxa-5-aza-benzocyclohepten-2-ylamino)-pyrimidin-4-ylamino]-3,5,N-trimethyl-benzamide], the IC50 in test [1] was less than 100 nM; in test [2], 1000 to 10000 nM.

On to `CNC(=O)c1cccc(Br)c1Nc1nc(Nc2ccc3c(c2)CCOC(=O)N3C)ncc1Cl` [Example 1751, 3-Bromo-2-[5-chloro-2-(5-methyl-6-oxo-5,6,8,9-tetrahydro-7-oxa-5-aza-benzocyclohepten-2-ylamino)-pyrimidin-4-ylamino]-N-methyl-benzamide], for which the results for the IC50 in test [1] and in test [2] were less than 100 nM and 1000 to 10000 nM, respectively.

As to `CNC(=O)c1cc(F)ccc1Nc1nc(Nc2ccc3c(c2)CCOC(=O)N3C)ncc1Cl` [Example 1752, 2-[5-Chloro-2-(5-methyl-6-oxo-5,6,8,9-tetrahydro-7-oxa-5-aza-benzocyclohepten-2-ylamino)-pyrimidin-4-ylamino]-5-fluoro-N-methyl-benzamide], the IC50 in test [1] and in test [2] was less than 100 nM in each case.

On to `CNC(=O)c1cccc(C(F)(F)F)c1Nc1nc(Nc2ccc3c(c2)CCOC(=O)N3C)ncc1Cl` [Example 1753, 2-[5-Chloro-2-(5-methyl-6-oxo-5,6,8,9-tetrahydro-7-oxa-5-aza-benzocyclohepten-2-ylamino)-pyrimidin-4-ylamino]-N-methyl-3-trifluoromethyl-benzamide], for which the IC50 was 100 to 1000 nM in test [1] and more than 10000 nM in test [2].

Take `CNC(=O)c1ccc(C(F)(F)F)cc1Nc1nc(Nc2ccc3c(c2)CCOC(=O)N3C)ncc1Cl` [Example 1754, 2-[5-Chloro-2-(5-methyl-6-oxo-5,6,8,9-tetrahydro-7-oxa-5-aza-benzocyclohepten-2-ylamino)-pyrimidin-4-ylamino]-N-methyl-4-trifluoromethyl-benzamide]: the IC50 in test [1] and in test [2] was 100 to 1000 nM each time.

As for `CNC(=O)c1c(C)cccc1Nc1nc(Nc2ccc3c(c2)CCOC(=O)N3C)ncc1Cl` [Example 1755, 2-[5-Chloro-2-(5-methyl-6-oxo-5,6,8,9-tetrahydro-7-oxa-5-aza-benzocyclohepten-2-ylamino)-pyrimidin-4-ylamino]-6,N-dimethyl-benzamide], the IC50 in test [1] and in test [2] was 100 to 1000 nM each time.

`CNC(=O)c1c(F)cccc1Nc1nc(Nc2ccc3c(c2)CCOC(=O)N3C)ncc1Cl` [Example 1756, 2-[5-Chloro-2-(5-methyl-6-oxo-5,6,8,9-tetrahydro-7-oxa-5-aza-benzocyclohepten-2-ylamino)-pyrimidin-4-ylamino]-6-fluoro-N-methyl-benzamide]: the IC50 in test [1] and in test [2] was less than 100 nM each time.

`CNC(=O)c1ccc(Cl)c(Cl)c1Nc1nc(Nc2ccc3c(c2)CCOC(=O)N3C)ncc1Cl` [Example 1757, 3,4-Dichloro-2-[5-chloro-2-(5-methyl-6-oxo-5,6,8,9-tetrahydro-7-oxa-5-aza-benzocyclohepten-2-ylamino)-pyrimidin-4-ylamino]-N-methyl-benzamide]: the IC50 in test [1] is less than 100 nM; in test [2], 100 to 1000 nM.

On to `CNC(=O)c1cc(F)cc(Cl)c1Nc1nc(Nc2ccc3c(c2)CCOC(=O)N3C)ncc1Cl` [Example 1758, 3-Chloro-2-[5-chloro-2-(5-methyl-6-oxo-5,6,8,9-tetrahydro-7-oxa-5-aza-benzocyclohepten-2-ylamino)-pyrimidin-4-ylamino]-5-fluoro-N-methyl-benzamide], for which the IC50 in test [1] was less than 100 nM; in test [2] it was 1000 to 10000 nM.

For `CNC(=O)c1scc(C)c1Nc1nc(Nc2ccc3c(c2)CCOC(=O)N3C)ncc1Cl` [Example 1759, 3-[5-Chloro-2-(5-methyl-6-oxo-5,6,8,9-tetrahydro-7-oxa-5-aza-benzocyclohepten-2-ylamino)-pyrimidin-4-ylamino]-4-methyl-thiophene-2-carboxylic acid methylamide], the results for the IC50 in test [1] and in test [2] were less than 100 nM and 1000 to 10000 nM, respectively.

Take `C#CCNC(=O)c1sccc1Nc1nc(Nc2ccc3c(c2)CCOC(=O)N3C)ncc1Cl` [Example 1760, 3-[5-Chloro-2-(5-methyl-6-oxo-5,6,8,9-tetrahydro-7-oxa-5-aza-benzocyclohepten-2-ylamino)-pyrimidin-4-ylamino]-thiophene-2-carboxylic acid prop-2-ynylamide]: the IC50 in test [1] is less than 100 nM; in test [2], 100 to 1000 nM.
